Test results taken from article PMC10433800, “Dissecting the Arginine and Lysine Biosynthetic Pathways and Their Relationship in Haloarchaeon Natrinema gari J7-2 via Endogenous CRISPR-Cas System-Based Genome Editing” (Microbiology Spectrum, 2023).

Biological target: T1, NgArgX (Natrinema gari, UniProt L9YZH8)
T1 construct: gene C486_12678; ArgX with His tag (C-terminal in complementation plasmids), expressed in and partially purified from the J7-2 delta-argWX strain; carrier ArgW with N-terminal His tag purified from E. coli BL21(DE3); with Alpha-aminoadipate/glutamate carrier protein LysW/ArgW
T1 sequence (L9YZH8 1-291): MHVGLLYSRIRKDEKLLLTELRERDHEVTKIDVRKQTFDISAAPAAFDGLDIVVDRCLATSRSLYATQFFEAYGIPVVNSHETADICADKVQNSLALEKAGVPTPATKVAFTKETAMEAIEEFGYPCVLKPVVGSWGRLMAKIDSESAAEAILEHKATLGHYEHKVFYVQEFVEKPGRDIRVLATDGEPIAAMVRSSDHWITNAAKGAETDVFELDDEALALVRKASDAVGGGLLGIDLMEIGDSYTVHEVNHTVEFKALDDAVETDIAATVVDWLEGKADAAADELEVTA
Assay: LC-MS/MS of trypsin-digested NgArgW-glutamate product
Assay type: biochemical
Settings: 10 mM glutamate, 20 mM ATP, 1 mM MgCl2, 0.1 mM ZnSO4, 3 M KCl, 100 mM HEPES pH 7.5, 45 °C, 12 h; glutamate ligated to Glu54 of NgArgW; enzyme partially purified

N[C@@H](CCC(=O)O)C(=O)O [glutamate]
LC-MS/MS of trypsin-digested NgArgW-glutamate product: both NgArgX and NgArgXa specifically act on glutamate rather than AAA
